In patent publication US10668040B2, “Treatment of urea cycle disorders in neonates and infants” (Horizon Therapeutics, LLC, priority 2017, dated 2020):

Legend:
[1] = test system: UCD patients; assay: Example 3: BMI and BSA Z-scores up to Month 24; assay type: in vivo, human
Description: Baseline and Change from Baseline in Body Mass Index (BMI) Z-Score Up to Month 24
(§1) To assess any effect of study drug treatment on growth, Z-scores were calculated to express the deviation from a reference population for BMI. The Z-scores are based on the World Health Organization's Child Growth Standards charts. Negative Z-scores indicate lower than typical for age and gender while positive scores indicate higher than typical for age and gender. BMI measurements were taken on month 1, month 2, month 3, month 4, month 5, month 6, month 9, month 12, month 15, month 18, and month 24.
Baseline and Change from Baseline in Body Surface Area (BSA) Z-Score Up to Month 24
as §1, with “BSA.” for “BMI.”, “weight-for-length” for “the World Health Organization's Child Growth Standards”

[2] = test system: UCD patients; assay: HPN-100-009 (Example 2): growth and development, BMI and BSA Z-scores; assay type: in vivo, human; settings: Age 2 Months to <2 Years
Description: Assessment of Growth and Development: Baseline and Change from Baseline in Body Mass Index (BMI) Z-Score and Body Surface Area (BSA) Z-Score Up to Month 9.
End point description. To assess any effect of study drug treatment on growth, Z-scores were calculated to express the deviation from a reference population for BMI and BSA. The BMI Z-scores are based on the World Health Organization's Child Growth Standards charts. The BSA Z-Scores are based on weight-for-length charts. Negative Z-scores indicate lower than typical for age and gender while positive scores indicate higher than typical for age and gender. […] End point timeframe: Baseline, Day 7, Month 2, Month 3, Month 4, Month 5, Month 6, Month 9.

[3] = Age 2 months to <2 years, Month 1
[4] = Age 2 months to <2 years, Month 2
[5] = Age 2 months to <2 years, Month 3
[6] = Age 2 months to <2 years, Month 4
[7] = Age 2 months to <2 years, Month 5
[8] = Age 2 months to <2 years, Month 6
[9] = Age 2 months to <2 years, Month 9
[10] = Age 2 months to <2 years, Month 12
[11] = Age 2 months to <2 years, Month 15
[12] = Age 2 months to <2 years, Month 18
[13] = Age 2 months to <2 years, Month 24

O=C(CCCc1ccccc1)OCC(COC(=O)CCCc1ccccc1)OC(=O)CCCc1ccccc1 [RAVICTI, benzenebutanoic acid, 1′,1″-(1,2,3-propanetriyl) ester]
BMI Z-Score baseline ([1]; Age 0 to <2 Months): −0.0544 (±1.268);
BSA Z-Score baseline ([1]; Age 0 to <2 Months): −0.1980 (±2.118);
BMI Z-Score change from baseline ([1]; Age 0 to <2 months, Month 1): −0.2158 (±1.36);
BSA Z-Score change from baseline ([1]; Age 0 to <2 months, Month 1): 0.2336 (±1.956);
BMI Z-Score change from baseline ([1]; Age 0 to <2 months, Month 2): −0.2598 (±1.195);
BSA Z-Score change from baseline ([1]; Age 0 to <2 months, Month 2): 0.2006 (±1.721);
BMI Z-Score change from baseline ([1]; Age 0 to <2 months, Month 3): −0.1617 (±1.026);
BSA Z-Score change from baseline ([1]; Age 0 to <2 months, Month 3): 0.2684 (±1.375);
BMI Z-Score change from baseline ([1]; Age 0 to <2 months, Month 4): −0.0264 (±1.682);
BSA Z-Score change from baseline ([1]; Age 0 to <2 months, Month 4): 0.2372 (±2.308);
BMI Z-Score change from baseline ([1]; Age 0 to <2 months, Month 5): 0.0828 (±1.142);
BSA Z-Score change from baseline ([1]; Age 0 to <2 months, Month 5): 0.1810 (±1.7);
BMI Z-Score change from baseline ([1]; Age 0 to <2 months, Month 6): 0.0136 (±1.721);
BSA Z-Score change from baseline ([1]; Age 0 to <2 months, Month 6): 0.2902 (±2.06);
BMI Z-Score change from baseline ([1]; Age 0 to <2 months, Month 9): 0.4614 (±1.253);
BSA Z-Score change from baseline ([1]; Age 0 to <2 months, Month 9): 0.1679 (±1.324);
BMI Z-Score change from baseline ([1]; Age 0 to <2 months, Month 12): 0.6646 (±0.9533);
BSA Z-Score change from baseline ([1]; Age 0 to <2 months, Month 12): 0.1308 (±0.5037);
BMI Z-Score change from baseline ([1]; Age 0 to <2 months, Month 15): 0.6830 (±0.557);
BSA Z-Score change from baseline ([1]; Age 0 to <2 months, Month 15): 0.1595 (±0.7583);
BMI Z-Score change from baseline ([1]; Age 0 to <2 months, Month 18): 0.3308 (±0.2757);
BSA Z-Score change from baseline ([1]; Age 0 to <2 months, Month 18): 0.1050 (±0.7352);
BMI Z-Score change from baseline ([1]; Age 0 to <2 months, Month 24): 0.7743 (±0.6496);
BSA Z-Score change from baseline ([1]; Age 0 to <2 months, Month 24): 0.7341 (±1.356);
BMI Z-Score baseline ([1]; Age 2 Months to <2 Years): 0.8107 (±2.17);
BSA Z-Score baseline ([1]; Age 2 Months to <2 Years): 0.7143 (±2.149);
BMI Z-Score change from baseline [1, 3]: −0.2385 (±0.7783);
BSA Z-Score change from baseline [1, 3]: −0.2105 (±0.7413);
BMI Z-Score change from baseline [1, 4]: −0.0249 (±0.7486);
BSA Z-Score change from baseline [1, 4]: −0.0704 (±0.7039);
BMI Z-Score change from baseline [1, 5]: 0.1815 (±0.8606);
BSA Z-Score change from baseline [1, 5]: 0.1065 (±0.7016);
BMI Z-Score change from baseline [1, 6]: 0.4434 (±0.9485);
BSA Z-Score change from baseline [1, 6]: 0.3365 (±0.7767);
BMI Z-Score change from baseline [1, 7]: 0.1484 (±0.7629);
BSA Z-Score change from baseline [1, 7]: 0.1043 (±0.5675);
BMI Z-Score change from baseline [1, 8]: 0.2497 (±0.8092);
BSA Z-Score change from baseline [1, 8]: 0.1842 (±0.622);
BMI Z-Score change from baseline [1, 9]: 0.6407 (±0.9869);
BSA Z-Score change from baseline [1, 9]: 0.4875 (±0.8614);
BMI Z-Score change from baseline [1, 10]: 0.4164 (±0.8067);
BSA Z-Score change from baseline [1, 10]: 0.2944 (±0.7513);
BMI Z-Score change from baseline [1, 11]: −0.2997 (±0.1696);
BSA Z-Score change from baseline [1, 11]: −0.3661 (±0.00932);
BMI Z-Score change from baseline [1, 12]: −0.2038 (±00000);
BSA Z-Score change from baseline [1, 12]: −0.2214 (±00000);
BMI Z-Score change from baseline [1, 13]: 0.5581 (±1.24);
BSA Z-Score change from baseline [1, 13]: 0.4310 (±1.131);
BMI Z-Score baseline [2]: 0.795
BMI Z-score, Change from Baseline at Day 7 [2]: -0.211
BMI Z-score, Change from Baseline at Month 2 [2]: 0.0021
BMI Z-score, Change from Baseline at Month 3 [2]: 0.213
BMI Z-score, Change from Baseline at Month 4 [2]: 0.47
BMI Z-score, Change from Baseline at Month 5 [2]: 0.164
BMI Z-score, Change from Baseline at Month 6 [2]: 0.469
BSA Z-Score baseline [2]: 0.686
BSA Z-score, Change from Baseline at Day 7 [2]: -0.185
BSA Z-score, Change from Baseline at Month 2 [2]: -0.0437
BSA Z-score, Change from Baseline at Month 3 [2]: 0.119
BSA Z-score, Change from Baseline at Month 4 [2]: 0.381
BSA Z-score, Change from Baseline at Month 5 [2]: 0.198
BSA Z-score, Change from Baseline at Month 6 [2]: 0.398
